24 compounds from patent US6743917B2, “Camptothecin analogs and methods of preparation thereof” (University of Pittsburgh, priority 1993, dated 2004) can be followed below.

As a reminder, the IC50 is the midpoint of a concentration-inhibition curve.

Where two headings read alike, the source gives them in different places.

Data set [1] relates to DC-3F (hamster lung) cells. Nature of the data set: Cytotoxicity assay, DC-3F cells (sulforhodamine B protein content). The data set is classed as cell-based. The conditions noted are these: read-out: Inhibition of cancer cell growth IC50, DC-3F. The procedure: (§1) Cultures were fixed with trichloroacetic acid and then stained for 30 minutes with 0.4% sulforhodamine B dissolved in 1% acetic acid. Unbound dye was removed by acetic acid washes, and the protein-bound dye was extracted with an unbuffered Tris base [tris(hydroxy-methyl)aminomethan] for determination of absorbance at 570 nm in a 96-well microplate reader. The experiments were carried out in duplicate using five to six concentrations of the drugs tested. Data were analyzed via computer software.

Data set [2] concerns HL-60 (human promyelocytic leukemic) cells. Description: Cytotoxicity assay, HL-60 cells (XTT-microculture tetrazolium assay). The data set is classed as cell-based. The conditions noted are these: read-out: Inhibition of cancer cell growth IC50, HL-60. How it is done:
The camptothecin derivatives were evaluated for their cytotoxic effects on the growth of HL-60 (human promyelocytic leukemic), 833K (human teratocarcinoma) and DC-3F (hamster lung) cells in vitro. The cells were cultured in an initial density of […]. They were maintained in a 5% CO2 humidified atmosphere at 37° C. in RPMI-1640 media (GIBCO-BRL Grand Island, N.Y.) containing penicillin 100 μ/ml)/streptomycin (100 ^μg/ml) (GIBCO-BRL) and 10% heat inactivated fetal bovine serum. The assay was performed in duplicate in 96-well microplates. The cytotoxicity of the compounds toward HL-60 cells following 72 hr incubation was determined by XTT-microculture tetrazolium assay. Scudiero, D. A., et al., Cancer Res., 48, 4827 (1988), the disclosure of which is incorporated herein by reference. 2′, 3′-bis(-methoxy-4-nitro-5-sulfheny)-5-[(phenylamino)carbonyl]-2H-tetrazolium hydroxide (XTT) was prepared at 1 mg/ml in prewarmed (37° C.) medium without serum. Phenazine methosulfate (PMS) and fresh XTT were mixed together to obtain 0.075 mM PMS-XTT solution (25 ^μl of the stock 5 mM PMS was added per 5 ml of 1 mg/ml XTT). Fifty ^μl of this mixture was added to each well of the cell culture at the end of 72 hr incubation. After incubation at 37° C. for 4 hr., absorbance at 450 nm and 630 nm was measured with a microplate reader (EL340, Bio-Tek Instruments, Inc., Winooski, Vt.).

Data set [3] relates to 833K (human teratocarcinoma) cells. Nature of the data set: Cytotoxicity assay, 833K cells (sulforhodamine B protein content). The class given is cell-based. The conditions noted are these: read-out: Inhibition of cancer cell growth IC50, 833K. How it is done: as §1
Data set [4] is described as follows: Equilibrium binding to DMPC small unilamellar vesicles (fluorescence anisotropy titration). The conditions noted are these: PBS buffer at PH 7.4 and 37° C. For orientation: In fluorescence polarisation assays a small probe gives low polarisation when free and higher when bound to something large.
A short description of data set [5]: Equilibrium binding to DMPG small unilamellar vesicles (fluorescence anisotropy titration). Particulars: PBS buffer at PH 7.4 and 37° C.
Data set [6] is described as follows: Kinetics of lactone ring opening in PBS containing HSA (HPLC). The conditions noted are these: HSA (PBS containing 30 mg/ml HSA).
The nature of data set [7]: Kinetics of lactone ring opening in whole human blood (HPLC).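 Note: hydrolytic opening of the camptothecin lactone ring followed over time by quantitative C18 reversed-phase HPLC in human whole blood at physiological temperature.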 Particulars: Whole Blood, physiological temperature.
Data set [8] can be described thus: Kinetics of lactone ring opening in PBS buffer (HPLC). The class given is physicochemical. The conditions noted are these: PBS. How it is done: Kinetics of Lactone Ring Opening. […] Mi and Burke (1994), supra.
FIG. 21 summarizes the stability of DB172 in phosphate buffered saline (PBS) buffer, pH 7.4, at physiological temperature. Shown in the figure are plots of lactone fraction as a function of time for DB172 at different concentrations. Drug was added to solution from a concentrated DMSO stock solution such that the volumes of DMSO were very small (less than 0.5%) relative to the volume of water. […] At the more dilute drug concentrations the drug hydrolyzes as previously observed for other camptothecins containing the ^α-hydroxy-^δ-lactone moiety.

Setting [9] is: Mesocricetus auratus, DC3F, DC-3F cells, sulforhodamine B.
[10] abbreviates: Homo sapiens, HL-60 cells, 72 hr incubation, XTT.
Where [11] appears, read: Homo sapiens, 833K cells, sulforhodamine B.
Where [12] appears, read: HL-60 cells, 72 hr incubation, XTT.

Regarding `CCC1(O)C(=O)OCc2c1cc1n(c2=O)Cc2c-1nc1ccccc1c2[Si](c1ccccc1)(c1ccccc1)C(C)(C)C` (stereo in doubt) [Example 3, (20S)-7-tert-butyldiphenylsilylcamptothecin], the IC50 turned out to be 663 nM in data set [1] (setting [9]), 339 nM in data set [2] (setting [10]) and 243 nM in data set [3] (setting [11]).

`CCC1(O)C(=O)OCc2c1cc1n(c2=O)Cc2c-1nc1ccc(OC(C)=O)cc1c2[Si](C)(C)C` (stereo in doubt) [Example 4, (20S)-10-acetoxy-7-trimethylsilylcamptothecin]: the half-maximal inhibitory concentration (IC50) in data set [1] (setting [9]) turned out to be 6.7 nM; in data set [2] (setting [10]), 2.7 nM.

In the case of `CCC1(O)C(=O)OCc2c1cc1n(c2=O)Cc2c-1nc1ccc(O)cc1c2[Si](C)(C)C` (stereo in doubt) [Example 5, (20S)-10-hydroxy-7-trimethylsilylcamptothecin], the values for the 50% inhibitory concentration (IC50) in data set [1] (setting [9]), in data set [2] (setting [10]) and in data set [3] (setting [11]) were 6.9 nM, 2.6 nM and 7 nM, respectively.

On to `CCC1(O)C(=O)OCc2c1cc1n(c2=O)Cc2c-1nc1ccc(OC(=O)N3CCC(N4CCCCC4)CC3)cc1c2[Si](C)(C)C` (stereo in doubt) [Example 6, (20S) 7-trimethylsilyl-irinotecan], for which the IC50 in data set [1] (Mesocricetus auratus, DC3F) worked out at 256 nM; in data set [2] (Homo sapiens, HL-60, 72 h) it was 66 nM; in data set [3] (Homo sapiens, 833K), 214 nM.

Regarding `CCC1(O)C(=O)OCc2c1cc1n(c2=O)Cc2c-1nc1cc(N)ccc1c2[Si](C)(C)C` (stereo in doubt) [Example 9, (20S)-11-amino-7-trimethylsilylcamptothecin], the 50% inhibitory concentration (IC50) in data set [1] (setting [9]) was found to be 6.4 nM; in data set [2] (setting [10]), 2.6 nM; in data set [3] (setting [11]), 7.4 nM.

Regarding `CCC1(O)C(=O)OCc2c1cc1n(c2=O)Cc2c-1nc1cc(F)c(N)cc1c2[Si](C)(C)C` (stereo in doubt) [Example 10, (20S)-11-fluoro-10-amino-7-trimethylsilylcamptothecin], the IC50 in data set [1] (setting [9]) came to 0.29 nM; in data set [2] (setting [10]), 0.07 nM; in data set [3] (setting [11]), 0.14 nM.

Take `CCCCc1c2c(nc3ccc(O)cc13)-c1cc3c(c(=O)n1C2)COC(=O)C3(O)CC` (centres unmarked) [7-butyl-10-hydroxycamptothecin]: the “KDMPC overall association constant” value in data set [4] is 2100 M⁻¹. In addition, the “KDMPG overall association constant” value in data set [5] was 1270 M⁻¹.

For the compound `CCc1c2c(nc3ccc(OC)cc13)-c1cc3c(c(=O)n1C2)COC(=O)C3(O)CC` (centres unmarked) [7-ethyl-10-methoxycamptothecin], the “KDMPC overall association constant” value in data set [4] came out at 340 M⁻¹. Moreover, the “KDMPG overall association constant” value in data set [5] turned out to be 330 M⁻¹.

In the case of `CCc1c2c(nc3ccccc13)-c1cc3c(c(=O)n1C2)COC(=O)[C@]3(O)CC` [7-ethyl-20(S)-camptothecin], the “KDMPC overall association constant” value in data set [4] was 250 M⁻¹. Also, in data set [5], the “KDMPG overall association constant” value stood at 300 M⁻¹.

For the compound `CCC1(O)C(=O)OCc2c1cc1n(c2=O)Cc2c-1nc1ccc(O)cc1c2C` (centres unmarked) [7-methyl-10-hydroxycamptothecin], the “KDMPC overall association constant” value in data set [4] was determined as 220 M⁻¹. The “KDMPG overall association constant” value in data set [5] turned out to be 90 M⁻¹.

Consider `CCC1(O)C(=O)OCc2c1cc1n(c2=O)Cc2c-1nc1ccc(OC)cc1c2C` (centres unmarked) [7-methyl-10-methoxycamptothecin], for which, in data set [4], the “KDMPC overall association constant” value was 220 M⁻¹. Moreover, the “KDMPG overall association constant” value in data set [5] turned out to be 200 M⁻¹.

Turning to `CC[C@@]1(O)C(=O)OCc2c1cc1n(c2=O)Cc2c-1nc1ccccc1c2C` [7-methyl-20(S)-camptothecin], the “KDMPC overall association constant” value in data set [4] was determined as 150 M⁻¹. For the same compound, the “KDMPG overall association constant” value in data set [5] is 180 M⁻¹.

Take `CCCc1c2c(nc3ccc(O)cc13)-c1cc3c(c(=O)n1C2)COC(=O)C3(O)CC` (centres unmarked) [7-propyl-10-hydroxycamptothecin]: the “KDMPC overall association constant” value in data set [4] amounted to 550 M⁻¹. In data set [5], the “KDMPG overall association constant” value was 250 M⁻¹.

On to `CCCc1c2c(nc3ccc(OC)cc13)-c1cc3c(c(=O)n1C2)COC(=O)C3(O)CC` (centres unmarked) [7-propyl-10-methoxycamptothecin], for which the “KDMPC overall association constant” value in data set [4] amounted to 440 M⁻¹. Moreover, the “KDMPG overall association constant” value in data set [5] was 570 M⁻¹.

For the compound `CCCc1c2c(nc3ccccc13)-c1cc3c(c(=O)n1C2)COC(=O)[C@]3(O)CC` [7-propyl-20(S)-camptothecin], in data set [4], the “KDMPC overall association constant” value came out at 540 M⁻¹. The “KDMPG overall association constant” value in data set [5] came out at 600 M⁻¹.

Regarding `CC[C@@]1(O)C(=O)OCc2c1cc1n(c2=O)Cc2c-1nc1ccc(O)cc1c2[Si](C)(C)CCCN(C)C.Cl` [DB-124, 10-hydroxy-7-(3-dimethylaminopropyldimethylsilyl) camptothecin hydrochloride salt], the “% Lactone at Equilibrium” value in data set [6] is listed as 12.2 +/− 0.3%; in data set [7] it was 31.8 +/− 0.8%; in data set [8], 8.9 +/− 0.3%. Besides, the t1/2 in data set [6] was determined as 40.0 ± 0.3 min; in data set [7] it was 63.1 ± 7.4 min.

On to `CC[C@@]1(O)C(=O)OCc2c1cc1n(c2=O)Cc2c-1nc1ccccc1c2[Si](C(C)C)(C(C)C)C(C)C` [Example 12, 20S-7-triisopropylsilylcamptothecin], for which the IC50 in data set [1] (setting [9]) was 1040 nM; in data set [2] (setting [10]), 1510 nM; in data set [3] (setting [11]), 10700 nM.

For the compound `CC[C@@]1(O)C(=O)OCc2c1cc1n(c2=O)Cc2c-1nc1ccccc1c2[Si](CC)(CC)CC` [Example 13, (20S)-7-Triethylsilylcamptothecin], the IC50 in data set [1] (setting [9]) stood at 57.1 nM; in data set [2] (setting [10]), 31.9 nM; in data set [3] (setting [11]), 122 nM.

For `CC[C@@]1(O)C(=O)OCc2c1cc1n(c2=O)Cc2c-1nc1ccccc1c2[Si](C)(C)CC1CCC2CC1C2(C)C` (stereo partly drawn) [Example 14, (20S)-7-(dimethyl-(1′S,2′S,5′S) 7,7 dimethylnorpinylsilyl)camptothecin], the IC50 worked out at 64.1 nM in data set [1] (setting [9]), 66.9 nM in data set [2] (setting [10]) and 197 nM in data set [3] (setting [11]).

As to `CC[C@@]1(O)C(=O)OCc2c1cc1n(c2=O)Cc2c-1nc1ccccc1c2[Si](C)(C)CCCC#N` [Example 15, (20S)-7-(3-cyanopropyldimethylsilyl)camptothecin], the IC50 was 2.7 nM in data set [1] (setting [9]), 0.91 nM in data set [2] (setting [10]) and 2.7 nM in data set [3] (setting [11]).

Regarding `CC[C@@]1(O)C(=O)OCc2c1cc1n(c2=O)Cc2c-1nc1ccccc1c2[Si](C)(C)CCCCl` [Example 16, (20S)-7-(3-halopropyldimethylsilyl) camptothecin], the 50% inhibitory concentration (IC50) is 2.3 nM in data set [1] (setting [9]), 2.1 nM in data set [2] (setting [10]) and 5.4 nM in data set [3] (setting [11]).

Consider `CC[C@@]1(O)C(=O)OCc2c1cc1n(c2=O)Cc2c-1nc1ccc(OC(C)=O)cc1c2[Si](C)(C)C(C)(C)C` [Example 17, (20S)10-acetoxy-7-tert-butyldimethylsilylcamptothecin], for which the figures for the half-maximal inhibitory concentration (IC50) in data set [1] (setting [9]) and in data set [2] (setting [10]) were 3.57 nM and 1.86 nM, respectively.

In the case of `CC[C@@]1(O)C(=O)OCc2c1cc1n(c2=O)Cc2c-1nc1ccc(OC(C)=O)cc1c2[Si](C)(C)C(C)(C)C` [Example 18, (20S)10-Acetoxy-7-tert-butyldimethylsilylcamptothecin], the IC50 came to 5.2 nM in data set [1] (DC-3F cells, sulforhodamine B) and 2.6 nM in data set [2] (setting [12]).

In the case of “(20S)-11,12-difluoro-7-trimethylsilylcamptothecin and (20S)-9,10-difluoro-7-trimethylsilylcamptothecin [Example 11]”, the IC50 in data set [1] (DC-3F cells, sulforhodamine B) came to 2.5 nM; in data set [2] (setting [12]), 1.01 nM; in data set [3] (833K cells, sulforhodamine B), 2.1 nM.
